According to ChEMBL document CHEMBL6103638, “Dual Modulator of FXR and HSD17B13: Revitalizing FXR Therapies in MASH” (J Med Chem, 2025):

Target: T1, Bile acid receptor (Homo sapiens, UniProt Q96RI1)
T1 sequence (Q96RI1 whole entry): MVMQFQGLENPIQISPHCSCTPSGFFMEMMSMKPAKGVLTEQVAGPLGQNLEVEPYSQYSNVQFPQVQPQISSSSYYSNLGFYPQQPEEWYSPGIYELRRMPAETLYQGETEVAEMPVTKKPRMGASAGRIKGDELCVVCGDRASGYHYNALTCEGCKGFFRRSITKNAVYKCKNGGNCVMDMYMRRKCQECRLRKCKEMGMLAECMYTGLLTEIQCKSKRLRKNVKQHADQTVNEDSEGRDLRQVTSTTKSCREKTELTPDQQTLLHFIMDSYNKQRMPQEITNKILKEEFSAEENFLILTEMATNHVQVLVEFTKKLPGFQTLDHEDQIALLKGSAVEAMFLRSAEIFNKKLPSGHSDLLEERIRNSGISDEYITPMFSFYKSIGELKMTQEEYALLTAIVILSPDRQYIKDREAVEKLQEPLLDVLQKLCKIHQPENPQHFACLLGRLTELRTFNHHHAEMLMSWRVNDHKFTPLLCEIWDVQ
Assay: Agonist activity at FXR (unknown origin)

How did the EC50 turn out when CC(C)(C)c1ccc(-n2cnc3c(NC(=O)Cc4ccc(C(=O)O)cc4)cccc32)cc1 was run?
The EC50 was 780 nM.
